Where only a bound is given, the exact number is not on record here.

T1 sequence (Q9UQD0 whole entry): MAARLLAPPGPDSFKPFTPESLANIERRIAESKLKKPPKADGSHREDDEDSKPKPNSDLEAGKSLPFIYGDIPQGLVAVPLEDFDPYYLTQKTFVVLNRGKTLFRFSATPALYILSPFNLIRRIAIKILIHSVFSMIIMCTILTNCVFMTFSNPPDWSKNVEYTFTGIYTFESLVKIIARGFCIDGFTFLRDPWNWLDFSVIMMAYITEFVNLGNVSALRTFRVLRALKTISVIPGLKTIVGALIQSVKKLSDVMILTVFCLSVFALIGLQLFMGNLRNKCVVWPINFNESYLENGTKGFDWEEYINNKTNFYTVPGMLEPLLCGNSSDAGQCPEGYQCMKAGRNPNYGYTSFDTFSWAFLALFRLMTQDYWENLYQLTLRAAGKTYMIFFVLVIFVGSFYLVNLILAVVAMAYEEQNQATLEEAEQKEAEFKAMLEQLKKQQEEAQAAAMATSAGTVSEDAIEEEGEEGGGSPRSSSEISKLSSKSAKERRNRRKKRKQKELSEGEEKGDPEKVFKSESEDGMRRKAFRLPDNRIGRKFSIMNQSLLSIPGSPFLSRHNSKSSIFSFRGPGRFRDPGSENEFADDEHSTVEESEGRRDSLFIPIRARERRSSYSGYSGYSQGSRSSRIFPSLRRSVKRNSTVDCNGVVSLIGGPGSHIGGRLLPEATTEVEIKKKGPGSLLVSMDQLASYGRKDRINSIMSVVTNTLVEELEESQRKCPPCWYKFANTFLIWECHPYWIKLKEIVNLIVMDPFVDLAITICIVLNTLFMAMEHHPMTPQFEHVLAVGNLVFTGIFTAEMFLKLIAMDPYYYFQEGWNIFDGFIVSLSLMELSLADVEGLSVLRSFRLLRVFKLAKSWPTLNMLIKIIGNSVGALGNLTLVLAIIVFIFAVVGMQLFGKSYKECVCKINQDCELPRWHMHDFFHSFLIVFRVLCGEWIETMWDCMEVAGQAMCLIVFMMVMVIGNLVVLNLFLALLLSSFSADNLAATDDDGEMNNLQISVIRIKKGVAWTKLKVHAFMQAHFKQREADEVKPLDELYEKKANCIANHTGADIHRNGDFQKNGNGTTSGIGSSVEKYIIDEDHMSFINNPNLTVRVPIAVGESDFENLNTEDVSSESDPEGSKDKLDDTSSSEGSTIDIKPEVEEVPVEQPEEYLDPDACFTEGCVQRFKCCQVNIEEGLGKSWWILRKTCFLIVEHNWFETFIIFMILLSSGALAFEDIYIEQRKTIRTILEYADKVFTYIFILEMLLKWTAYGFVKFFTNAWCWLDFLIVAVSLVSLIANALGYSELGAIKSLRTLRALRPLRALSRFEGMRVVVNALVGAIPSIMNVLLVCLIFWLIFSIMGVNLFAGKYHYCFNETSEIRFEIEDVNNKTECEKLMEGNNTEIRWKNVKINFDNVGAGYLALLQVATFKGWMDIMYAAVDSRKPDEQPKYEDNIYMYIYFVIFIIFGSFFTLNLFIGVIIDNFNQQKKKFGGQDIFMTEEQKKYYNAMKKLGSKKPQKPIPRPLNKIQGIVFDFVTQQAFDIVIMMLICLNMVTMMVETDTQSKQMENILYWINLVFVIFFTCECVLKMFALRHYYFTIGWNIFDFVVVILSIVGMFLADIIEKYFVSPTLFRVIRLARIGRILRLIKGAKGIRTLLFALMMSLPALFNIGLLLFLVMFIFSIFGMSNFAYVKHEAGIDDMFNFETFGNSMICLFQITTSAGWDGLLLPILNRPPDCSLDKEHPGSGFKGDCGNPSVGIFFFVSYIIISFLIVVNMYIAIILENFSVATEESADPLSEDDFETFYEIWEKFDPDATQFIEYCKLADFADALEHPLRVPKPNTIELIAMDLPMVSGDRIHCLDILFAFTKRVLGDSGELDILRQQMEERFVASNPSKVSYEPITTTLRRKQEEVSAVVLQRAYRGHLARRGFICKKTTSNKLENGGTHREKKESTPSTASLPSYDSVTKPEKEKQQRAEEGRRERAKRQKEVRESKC

This test addresses T1, INaL v1.6 (late sodium current, HEK-293 cells expressing recombinant sodium channels) (Homo sapiens, UniProt Q9UQD0).
T1 construct: expressed in transfected cells; host or cells: HEK-293
Kind of test: Inhibition of ATX-II evoked Nav late current (INaL), PatchXpress electrophysiology. The settings on record: HEK293, compound at 1 μM, late current evoked by ATX-II 300 nM. It counts as cell-based. Here is the method: Functional characterization of exemplary compounds to modulate voltage gated sodium currents was accomplished using the PatchXpress™ high throughput electrophysiology platforms (Molecular Devices, Sunnyvale, CA). HEK-293 cells expressing recombinant sodium channels were grown in DMEM/high-glucose Dulbecco's modified, 10% FBS, 2 mM sodium pyruvate, and G418. Nav channel expressing cells were grown to 50%-80% confluency and harvested by trypsinization. Trypsinized cells were washed and resuspended in extracellular buffer at a concentration of 1×10^6 cells/ml. The onboard liquid handling facility of the PatchXpress was used for dispensing cells and application of test compounds. Nav late currents were evoked by the application of ATX-II, 300 nM. Currents were evoked by depolarizing pulses to 0 mV for 200 ms from a non-inactivating holding potential (e.g., −120 mV to −150 mV) at a frequency of 0.1 Hz. Late current amplitude and stability were determined by analyzing the mean current amplitude over the 175-195 msec region of the 200 msec test pulse. Following steady state block with exemplary compounds (e.g., as described herein) at 1 μM, a Na^+ free solution containing an impermeant cation (e.g., Choline or NDMG) was added for determination of the 0 current level. Late current amplitudes for each test condition were determined from the mean of the 175-195 msec region of the 200 msec test pulse. Percent inhibition of steady state currents was calculated as (compound−baseline)/(control−baseline)*100, where control represents INaL recorded in the absence of compound.
Consider `CC(C)(Oc1ncc(-c2ccc3nnc(C(F)(F)F)n3n2)cc1F)C(F)(F)F` [Compound 34, 6-[5-fluoro-6-(2,2,2-trifluoro-1,1-dimethyl-ethoxy)-3-pyridyl]-3-(trifluoromethyl)-[1,2,4]triazolo[4,3-b]pyridazine], for which the inhibition at 1 µM was over 75%.
With `Cc1c(-c2cnc(O[C@@H](C)C(F)(F)F)c(F)c2)ncc2nnc(C(F)(F)F)n12` [Compound 38, 6-[5-fluoro-6-[(1S)-2,2,2-trifluoro-1-methyl-ethoxy]-3-pyridyl]-5-methyl-3-(trifluoromethyl)-[1,2,4]triazolo[4,3-a]pyrazine], the inhibition at 1 µM lay in the range of 50 to 75%.
For the molecule `Cc1c(-c2cnc(O[C@H](C)C(F)(F)F)c(F)c2)ncc2nnc(C(F)(F)F)n12` [Compound 39, 6-[5-fluoro-6-[(1R)-2,2,2-trifluoro-1-methyl-ethoxy]-3-pyridyl]-5-methyl-3-(trifluoromethyl)-[1,2,4]triazolo[4,3-a]pyrazine], the inhibition at 1 µM is 50 to 75%.
To `Cc1cc2nnc(C(F)(F)F)n2nc1-c1cnc(OC(C)(C)C(F)(F)F)c(F)c1` [Compound 40, 6-[5-fluoro-6-(2,2,2-trifluoro-1,1-dimethyl-ethoxy)-3-pyridyl]-7-methyl-3-(trifluoromethyl)-[1,2,4]triazolo[4,3-b]pyridazine] belongs over 75%.
In the case of `CC(C)(Oc1ncc(-c2nn3c(C(F)(F)F)nnc3cc2Cl)cc1F)C(F)(F)F` [Compound 41, 7-chloro-6-[5-fluoro-6-(2,2,2-trifluoro-1,1-dimethyl-ethoxy)-3-pyridyl]-3-(trifluoromethyl)-[1,2,4]triazolo[4,3-b]pyridazine], the inhibition at 1 µM was over 75%.
For the molecule `C[C@@H](Oc1ncc(-c2nn3c(C(F)(F)F)nnc3cc2Cl)cc1F)C(F)(F)F` [Compound 42, 7-chloro-6-[5-fluoro-6-[(1R)-2,2,2-trifluoro-1-methyl-ethoxy]-3-pyridyl]-3-(trifluoromethyl)-[1,2,4]triazolo[4,3-b]pyridazine], the inhibition at 1 µM was 50 to 75%.
`C[C@H](Oc1ncc(-c2nn3c(C(F)(F)F)nnc3cc2Cl)cc1F)C(F)(F)F` [Compound 43, 7-chloro-6-[5-fluoro-6-[(1S)-2,2,2-trifluoro-1-methyl-ethoxy]-3-pyridyl]-3-(trifluoromethyl)-[1,2,4]triazolo[4,3-b]pyridazine]: the inhibition at 1 µM lay in the range of 50 to 75%.
To `Cc1cc2nnc(C(F)(F)F)n2nc1-c1cnc(O[C@@H](C)C(F)(F)F)c(F)c1` [Compound 44, (S)-6-(5-fluoro-6-((1,1,1-trifluoropropan-2-yl)oxy)pyridin-3-yl)-7-methyl-3-(trifluoromethyl)-[1,2,4]triazolo[4,3-b]pyridazine] belongs over 75%; to `Cc1cc2nnc(C(F)(F)F)n2nc1-c1cnc(O[C@H](C)C(F)(F)F)c(F)c1` [Compound 45, (R)-6-(5-fluoro-6-((1,1,1-trifluoropropan-2-yl)oxy)pyridin-3-yl)-7-methyl-3-(trifluoromethyl)-[1,2,4]triazolo[4,3-b]pyridazine], 50 to 75%.
As to `C[C@H](Oc1ccc(-c2nn3c(C(F)(F)F)nnc3cc2Cl)cn1)C(F)(F)F` [Compound 46, (S)-7-chloro-3-(trifluoromethyl)-6-(6-((1,1,1-trifluoropropan-2-yl)oxy)pyridin-3-yl)-[1,2,4]triazolo[4,3-b]pyridazine], the inhibition at 1 µM was over 75%.
For the molecule `C[C@@H](Oc1ccc(-c2nn3c(C(F)(F)F)nnc3cc2Cl)cn1)C(F)(F)F` [Compound 47, (R)-7-chloro-3-(trifluoromethyl)-6-(6-((1,1,1-trifluoropropan-2-yl)oxy)pyridin-3-yl)-[1,2,4]triazolo[4,3-b]pyridazine], the inhibition at 1 µM was 50 to 75%.
For the molecule `Cc1cc2nnc(C(F)(F)F)n2nc1-c1ccc(O[C@@H](C)C(F)(F)F)nc1` [Compound 48, (S)-7-methyl-3-(trifluoromethyl)-6-(6-((1,1,1-trifluoropropan-2-yl)oxy)pyridin-3-yl)-[1,2,4]triazolo[4,3-b]pyridazine], the inhibition at 1 µM was over 75%.
With `Cc1cc2nnc(C(F)(F)F)n2nc1-c1ccc(O[C@H](C)C(F)(F)F)nc1` [Compound 49, (R)-7-methyl-3-(trifluoromethyl)-6-(6-((1,1,1-trifluoropropan-2-yl)oxy)pyridin-3-yl)-[1,2,4]triazolo[4,3-b]pyridazine] the figure was 50 to 75%; with `CC(C)(Oc1ccc(-c2nn3c(C(F)(F)F)nnc3cc2Cl)cn1)C(F)(F)F` [Compound 50, 7-chloro-6-[6-(2,2,2-trifluoro-1,1-dimethyl-ethoxy)-3-pyridyl]-3-(trifluoromethyl)-[1,2,4]triazolo[4,3-b]pyridazine], over 75%; with `Cc1cc2nnc(C(F)(F)F)n2nc1-c1ccc(OC(C)(C)C(F)(F)F)nc1` [Compound 51, 7-methyl-6-[6-(2,2,2-trifluoro-1,1-dimethyl-ethoxy)-3-pyridyl]-3-(trifluoromethyl)-[1,2,4]triazolo[4,3-b]pyridazine], 50 to 75%.
Turning to `FC(F)c1nnc2cnc(-c3ccc(OC4CC(F)(F)C4)nc3)cn12` [Compound 52, 6-(6-(3,3-difluorocyclobutoxy)pyridin-3-yl)-3-(difluoromethyl)-[1,2,4]triazolo [4,3-a]pyrazine], the inhibition at 1 µM was 50 to 75%.

The values above are taken from patent US12344615B2, “Substituted pyridines as ion channel modulators” (PRAXIS PRECISION MEDICINES, INC., priority 2019, dated 2025).
